Assay results published in patent US9351989B2, “Substituted purine nucleosides, phosphoroamidate and phosphorodiamidate derivatives for treatment of viral infections” (INHIBITEX, INC., priority 2010, dated 2016).

Tests used:
[1] = system: HCV replicon (Genotype 1b); assay: Luciferase genotype 1b replicon potency assay; type: cell-based; settings: Hepatitis C virus, Huh-7; luciferase-reporter genotype 1b subgenomic replicon cell line (Huh7); Renilla luciferase reporter activity
Experimental: (§1) Further to the above Examples, representative compounds, prepared according to the examples were tested for potency in an HCV replicon assay (Genotype 1b) for activity against the virus (EC50) and toxicity to the cells (CC50).
Huh7 Replicon Cell Lines and Cell Culture Conditions:
(§2) A luciferase-reporter genotype 1b subgenomic replicon cell line, and a genotype 1a full-length replicon cell line were obtained from Apath, LLC, Brooklyn, N.Y.: All cell lines were passaged twice a week by splitting 4 or 6 fold. Cells were maintained in DMEM-high glucose medium (HyClone, Logan, Utah) supplemented with 9% FBS (HyClone), 2 mM glutamine (Invitrogen, Carlsbad, Calif.), 100 U/mL PenStrep (Invitrogen). Media also contained 0.25 mg/mL of the antibiotic G-418 to maintain stable expression of the replicon (Invitrogen). Incubation was performed at 37° C. in 5% CO2 atmosphere. Replicon cell lines were used until they accumulated 15-to-18 passages, after which cells were restarted from the frozen stock. Seeding cell counts were routinely determined using an automatic Cedex HiRes cell counter (Flownomics Analytical Instruments, Madison, Wis.) or manually using INCYTO C—Chip™ Disposable Hemacytometers (Fisher Scientific, Pittsburgh, Pa.).
The anti-HCV assays were done accordingly:
Luciferase Genotype 1b Replicon Potency Assay.
Replicon cells were seeded into white 96-well plates (Nunc/VWR) at a density of 2×10^4 cells/well in medium without G-418. A Stacker Multidrop Liquid Dispenser (MTX Lab Systems, Vienna, Va.) was employed to ensure uniform and fast cell seeding into multiple plates. 18-24 h after cell plating, inhibitors were added and cells were incubated for additional 24, 48, or 72 h (as indicated). Compounds were tested in triplicates and quadruplicates at 3× or 4× serial dilutions over a range of 0.0001-to-10 μM concentrations. HCV replication was monitored by Renilla luciferase reporter activity assay using Renilla luciferase reporter (Promega, Madison, Wis.) and a Veritas Luminometer (Turner Biosystems, Sunnyvale, Calif.). 50% and 90% inhibitory concentration (IC50 and IC90) values were calculated as the concentration of compound that results correspondingly in 50% and 90% decreases in the reporter expression as compared to untreated cells. The values were determined by non-linear regression (four-parameter sigmoidal curve fitting) analysis.

[2] = Cytotoxicity assay (CellTiter-Glo); type: cell-based; settings: human, toxicity to the cells, 72 h incubation, CellTiter-Glo cell viability
Experimental: as §1, §2
The cell cytotoxicity assay data was obtained as described below:
Cells were seeded into 96-well plates at a density of 2×10^4 cells per well. 24 h after cell plating, 11 serial 2× compound dilutions, starting with 100 μM, were applied to the testing plates (3 repeats per compound dilution). Each testing plate was run with a “no-compound” control. Incubation with compounds was continued at 37° C. in a CO2 incubator for 72 h. To determine cell viability, the CellTiter-Glo® assay (Promega, Madison, Wis.) was performed according to the manufacturer's protocol. The compound concentration resulting in 50% luminescent signal was reported as the CC50 concentration.

[3] = Huh7 HCV genotype 1b replicon cells

Structure (SMILES) | IC50 [1] [µM] | CC50 at 72 h [2] [µM] | CC50 at 72 h [2, 3] [µM]
COc1nc(N)nc2c1nc(Cl)n2[C@@H]1O[C@H](COP(=O)(N[C@@H](C)C(=O)OCC(C)(C)C)Oc2cccc3ccccc23)[C@@H](O)[C@@]1(C)O (stereo partly drawn) [Example 14, (2S)-Neopentyl 2-((((2R,3R,4R,5R)-5-(2-Amino-8-chloro-6-methoxy-9H-purin-9-yl)-3,4-dihydroxy-4-methyltetrahydrofuran-2-yl)methoxy)(naphthalen-1-yloxy)phosphorylamino)propanoate] | > 10 | 60 | 
COc1nc(N)nc2c1nc(I)n2[C@@H]1O[C@H](COP(=O)(N[C@@H](C)C(=O)OC2CCCC2)Oc2cccc3ccccc23)[C@@H](O)[C@@]1(C)O (stereo partly drawn) [Example 16, (2S)-Cyclopentyl 2-((((2R,3R,4R,5R)-5-(2-Amino-8-iodo-6-methoxy-9H-purin-9-yl)-3,4-dihydroxy-4-methyltetrahydrofuran-2-yl)methoxy)(naphthalen-1-yloxy)phosphorylamino)propanoate] | 0.012 | 13 | 
COc1nc(N)nc2c1nc(I)n2[C@@H]1O[C@H](COP(=O)(N[C@@H](C)C(=O)OCC(C)(C)C)N[C@@H](C)C(=O)OCC(C)(C)C)[C@@H](O)[C@@]1(C)O [Example 23, (2S,2′S)-Neopentyl 2,2′-((((2R,3R,4R,5R)-5-(2-Amino-8-iodo-6-methoxy-9H-purin-9-yl)-3,4-dihydroxy-4-methyltetrahydrofuran-2-yl)methoxy)phosphoryl)bis(azanediyl)dipropanoate] | 0.11 |  | 53
COc1nc(N)nc2c1nc(I)n2[C@@H]1O[C@H](COP(=O)(N[C@H](C(=O)OCc2ccccc2)C(C)C)Oc2cccc3ccccc23)[C@@H](O)[C@@]1(C)O (stereo partly drawn) [Example 20, (2S)-Benzyl 2-((((2R,3R,4R,5R)-5-(2-Amino-8-iodo-6-methoxy-9H-purin-9-yl)-3,4-dihydroxy-4-methyltetrahydrofuran-2-yl)methoxy)(naphthalen-1-yloxy)phosphorylamino)-3-methylbutanoate] | 0.14 | 25 | 
COc1nc(N)nc2c1nc(Cl)n2[C@@H]1O[C@H](CO)[C@@H](O)[C@@]1(C)O [Example 6, (2R,3R,4R,5R)-2-(2-Amino-8-chloro-6-methoxy-9H-purin-9-yl)-5-(hydroxymethyl)-3-methyltetrahydrofuran-3,4-diol] | > 100 |  | > 100
CCCCOC(=O)[C@H](C)NP(=O)(OC[C@H]1O[C@@H](n2c(I)nc3c(OC)nc(N)nc32)[C@](C)(O)[C@@H]1O)Oc1cccc2ccccc12 (stereo partly drawn) [Example 10, (2S)-Butyl 2-((((2R,3R,4R,5R)-5-(2-Amino-8-iodo-6-methoxy-9H-purin-9-yl)-3,4-dihydroxy-4-methyltetrahydrofuran-2-yl)methoxy)(naphthalen-1-yloxy)phosphorylamino)propanoate] | 0.011 | 7.9 | 
COc1nc(N)nc2c1nc(Br)n2[C@@H]1O[C@H](COP(=O)(N[C@@H](C)C(=O)OCC(C)(C)C)Oc2cccc3ccccc23)[C@@H](O)[C@@]1(C)O (stereo partly drawn) [Example 13, (2S)-Neopentyl 2-((((2R,3R,4R,5R)-5-(2-Amino-8-bromo-6-methoxy-9H-purin-9-yl)-3,4-dihydroxy-4-methyltetrahydrofuran-2-yl)methoxy)(naphthalen-1-yloxy)phosphorylamino)propanoate] | 15 | 60 | 
